The source of these data is patent US10816541B2, “Method for predicting side effect of whitening ingredient” (AMOREPACIFIC CORPORATION, priority 2015, dated 2020).

“Also recorded” adds a separate entry of the source. Like-named read-outs stand apart in the source and are kept apart here. Bounds are passed on as bounds.

Data set [1] concerns HEMn-MP cells. As to the kind of experiment: Inhibition of melanin production in HEMn-MP cells and correlation factor with cytotoxic concentration (Test Example 2). As to conditions: for CC20/EC50 / CC50/EC50 / EC50: HEMn-MP cells, day 7; for CC20/EC50: 20% cytotoxic concentration divided by EC50 of melanin production; for CC50/EC50: 50% cytotoxic concentration divided by EC50 of melanin production; for EC50: read-out: EC50 (50% inhibitory concentration of melanin synthesis). Format: cell-based, human. How it is done: The inhibitory effect of melanin production of the whitening ingredients for HEMn-MP cells was investigated. After treating the cells with the samples at concentrations shown in Table 4 and culturing for 7 days, the amount of melanin was measured as compared to a control group (0.5% DMSO) (FIG. 4). Also, EC50 (50% effective inhibitory concentration of melanin production) was calculated for the whitening ingredients (Table 5). Then, CC20 or CC50 was divided by EC50 to investigate the correlation factor (difference) between the cytotoxicity and the effective inhibitory concentration of melanin production (Table 6).
Table 6 compares the correlation factor between the cytotoxic concentration (CC50) and the inhibitory concentration of melanin synthesis (EC50) of the whitening ingredients on day 7. CC20/EC50 is the value obtained by dividing the 20% cytotoxic concentration by the 50% effective inhibitory concentration of melanin production and represents the correlation factor of the 20% cytotoxic concentration and the effective concentration. CC50/EC50 is the value obtained by dividing the 50% cytotoxic concentration by the 50% effective inhibitory concentration of melanin production and represents the correlation factor of the 50% cytotoxic concentration and the effective concentration.

The conditions of data set [2]: consumers of commercialized skin whitening products, cited from earlier work.
Data set [3] can be described thus: Cytotoxic concentration for HEMn-MP cells depending on treatment time (CCK-8, Test Example 1-1). Format: cell-based, human. As to conditions: human, HEMn-MP cells (human epidermal melanocytes); for CC50 at 1 day: Day 1; for CC50 at 7 days: Day 7. How it is done:
(§1) The HEMn-MP (human epidermal melanocytes, neonatal, moderately pigmented donor, Cat. No. C-102-5C) cells were purchased from Life Technologies (USA). As a cell culture medium, medium 254 (Cat. No. M-254-500) supplemented with HMGS (Cat. No. S-002-5) was used. The cells were cultured according to the manufacturer's manual and cells during passages 3-8 were used. To summarize, the cells were cultured on a 175 T flask in a 5% CO2 incubator at 37° C. During subculturing, the cells were separated using 0.05% trypsin-EDTA, collected by centrifugation (1200 rpm, 5 minutes) and cultured after seeding to 5×10^3 cells/cm^2. For cytotoxicity test, the cells were seeded onto a 96-well plate with 2×10^4 cells/well, cultured for a day and treated with each substance at 200 μL/well. Then, cytotoxicity was measured after a predetermined time.
(§2) Cytotoxicity was measured with Cell Counting Kit-8 (CCK-8) manufactured by Dojindo Molecular Technologies (USA). After removing the medium from the 96-well plate, 200 μL of 10% CCK-8 in the same medium was added to each well. After incubation at 37° C. for about 2 hours, absorbance of 100 μL of the medium was measured at 450 nm using an ELISA reader. As the cells […], the color of CCK-8 shifts to longer wavelength from colorless to orange color.
(§3) Cell survivability was calculated according to Equation 1. Cell survivability (%)={(Asample−Ab)/(Ac−Ab)}×100 [Equation 1]
(§4) In order to determine the cytotoxic concentration of the whitening ingredients for HEMn-MP (human epidermal melanocytes, neonatal, moderately pigmented donor, Cat. No. C-102-5C) cells, cell survivability (% cell survival rate) was measured as compared to a control group (0.5% DMSO) on days 1 and 7 after treatment with each whitening ingredient at the concentration described in Table 1 (FIG. 2). Based on the measurement result, CC20 and CC50 were calculated for the whitening ingredients and treatment time. Then, the ratio of the cytotoxic concentration on day 7 as compared to day 1 was calculated (Table 2).

Data set [4] has as its system HEMn-MP cells. The data set is described as above. Format: cell-based, human. How it is done: as §1, §2, §3, §4
For data set [5], the system named is HEMn-MP cells. As to the kind of experiment: Cytotoxicity for HEMn-MP cells with or without UVB radiation (Test Example 3). Particulars: UVB 20 mJ/cm^3 irradiated vs unirradiated HEMn-MP cells, day 7. Format: cell-based, human. From the text:
In order to investigate the effect of UVB radiation on the cytotoxicity of the whitening ingredients, cytotoxicity was compared for groups treated with the whitening ingredients without UVB radiation and groups irradiated with UVB at […] and then treated with the whitening ingredients (FIG. 5). That is to say, the response of the cells excited by UVB radiation to various whitening ingredients was investigated. After irradiating the cells with UVB and treating the cells with the samples, increase in cytotoxicity was determined and the ratio of cytotoxicity as compared to before the treatment was calculated (Table 7).
The ratio (%) of toxicity for the UVB-irradiated cells as compared to UVB-unirradiated cells was determined at representative concentrations (3 points) for each whitening ingredient. The ratio was corrected for the cytotoxicity of the control group (15-20%).

Data set [6] in a line: Cytotoxic concentration for A375 cells depending on treatment time (CCK-8, Test Example 1-2). Particulars: human, A375 cells (melanoma cell line), A375 cells; for CC50 at 24 hours: Day 1 (24 hours); for CC50 at 3 days: Day 3. Format: cell-based, human. On the procedure:
(§5) The A375 (human melanoma cell line) cells were purchased from the ATCC (Cat. No. CRL-1619, USA). As a cell culture medium, DMEM (Cat. No. 12-604, Lonza, USA) supplemented with 10% FBS (Cat. No. 16000-044, Gibco, USA) was used. Subculturing and cytotoxicity test were conducted in the same manner as for the HEM cells.
as §2, §3
(§6) The cytotoxicity of the whitening ingredients for A375 (human melanoma cell line, Cat. No. CRL-1619) cells with different treatment time was investigated. The toxicity was measured for 3 different sample treatment conditions. The cytotoxicity was measured after treating with the whitening ingredients for 24 hours, after treating with the samples for 24 hours and 48 hours later after exchanging with fresh media, and after treating with the samples for 72 hours without exchange of media. The result is shown as graphs (FIG. 3). Based on the measurement result, CC20 and CC50 were calculated for the whitening ingredients and treatment time. Then, the ratio of the cytotoxic concentration on day 3 as compared to day 1 was calculated (Table 3).

In another data set the test system is A375 cells. The data set is described as above. As to conditions: for Change in cytotoxicity after removal of the samples: A375 cells treated for a day, then cultured further for 2 days after removing the samples; for CC20 / CC50: A375 cells. The format is cell-based, human. How it is done:
as §5, §2, §3, §6

Regarding `CC(=O)CCc1ccc(O)cc1` [RK, raspberry ketone], in the data set with HEMn-MP cells [1], the CC20/EC50 came to 0.4 Fold. In the data set with HEMn-MP cells [1], this molecule gave a CC50/EC50 of 1.4 Fold. Further, in the data set with HEMn-MP cells [1] (Homo sapiens, 168 h), the EC50 was 970 ± 90 µM. Further, the “Clinical side effect reported by users” value in data set [2] is “leukoderma-like side effects”. In data set [3], this molecule came in with a CC50 at 1 day of 10400 ± 200 µM. Moreover, in data set [3], half-maximal cytotoxicity (CC50 at 7 days) was put at 1400 ± 400 µM. The CC20 is 6500 ± 200 µM with HEMn-MP cells [4] (Day 1), 400 ± 100 µM in the data set on HEMn-MP cells [4] (Day 7), 6700 ± 100 µM in the data set with A375 cells (Day 1 (24 hours)) and 240 ± 20 µM in the data set with A375 cells (Day 3). For the same molecule, the Ratio of cytotoxicity in the data set with HEMn-MP cells [5] (0.625 mM) stood at 19%; in the data set on HEMn-MP cells [5] (1.25 mM), 8%; in the data set on HEMn-MP cells [5] (2.5 mM) it was 26%. In data set [6], this molecule came in with a CC50 at 24 hours of 10700 ± 100 µM. This molecule also registered a cytotoxic concentration (CC50) at 3 days in data set [6] of 790 ± 40 µM. Further, the “Change in cytotoxicity after removal of the samples” value (shortened to “Change in cytotoxicity”) with A375 cells was “continuously increased toxicity”.

In the data set on HEMn-MP cells [1], `CCCCc1ccc(O)cc1O` [RC, 4-butylresorcinol] came in with a CC20/EC50 of over 20 Fold. The EC50 in the data set on HEMn-MP cells [1] (Homo sapiens, 168 h) amounted to 2.7 ± 0.6 µM. Further, in data set [2] (listed as rucinol), the “Clinical side effect reported by users” value is recorded as “no clinical side effect has been reported; also recorded: no clinical problem has been reported”. Also, in data set [3], the CC50 at 1 day turned out to be 347 ± 12.7 µM. This molecule also showed a CC50 at 7 days in data set [3] of 284 ± 20.4 µM. Also, the CC20 in the data set on HEMn-MP cells [4] (Day 1) worked out at 170.2 ± 15.9 µM; in the data set on HEMn-MP cells [4] (Day 7), 69.7 ± 6.1 µM; in the data set on A375 cells (Day 1 (24 hours)), 313.9 ± 10.6 µM; in the data set with A375 cells (Day 3), 52.73 ± 4.67 µM. Besides, the Ratio of cytotoxicity in the data set with HEMn-MP cells [5] (31.25 μM), with HEMn-MP cells [5] (62.5 μM) and in the data set with HEMn-MP cells [5] (125 μM) was 0% in each case. Besides, the CC50 at 24 hours in data set [6] was 508 ± 11.3 µM. The same molecule returned a CC50 at 3 days in data set [6] of 122 ± 11 µM. In the data set with A375 cells, the “Change in cytotoxicity” value was “no more increase in cytotoxicity”.

For `Oc1ccc(OCc2ccccc2)cc1` [MB, 4-benzyloxy-phenol], in the data set with HEMn-MP cells [1], the CC20/EC50 worked out at 1.3 Fold and the CC50/EC50 amounted to 2.8 Fold. In the data set with HEMn-MP cells [1] (Homo sapiens, 168 h), the EC50 came out at 6.8 ± 2.5 µM. For the same molecule, in data set [2], the “Clinical side effect reported by users” value was “leukoderma-like side effects”. In data set [3], this molecule returned a 50% cytotoxic concentration (CC50) at 1 day of 284 ± 28.2 µM and a CC50 at 7 days of 19 ± 0.7 µM. In the data set on HEMn-MP cells [4] (Day 1), this molecule yielded a CC20 of 178.2 ± 21.6 µM. Besides, the CC20 in the data set on HEMn-MP cells [4] (Day 7) was 8.9 ± 0.4 µM. In data set [6], this molecule gave a CC50 at 24 hours of 295 ± 7.2 µM and a CC50 at 3 days of 7.19 ± 0.14 µM. In addition, the “Change in cytotoxicity” value in the data set with A375 cells is recorded as “continuously increased toxicity”. This molecule also showed a CC20 in the data set on A375 cells (Day 1 (24 hours)) of 119.8 ± 4.7 µM. This molecule had a CC20 with A375 cells (Day 3) of 2.31 ± 0.07 µM.

`COc1cc(OC)c(C23CC4CC(CC(C4)C2)C3)cc1C(=O)NCc1ccc(O)cc1O` [AP, 5-adamantan-1-yl-N-(2,4-dihydroxybenzyl)-2,4-dimethoxy-benzoic acid amide] displayed a CC20/EC50 with HEMn-MP cells [1] of 11.8 Fold. Moreover, the EC50 in the data set on HEMn-MP cells [1] (Homo sapiens, 168 h) was found to be 0.11 ± 0.01 µM. The “Inhibitory effect of melanin production by melanocytes” value with HEMn-MP cells [1] (Test Example 2) is listed as “excellent inhibitory effect of melanin production”. Moreover, it took 5.4 ± 0.3 µM to reach half-maximal cytotoxicity in data set [3] (CC50 at 1 day). In data set [3], this molecule returned a CC50 at 7 days of 2.5 µM. Further, the CC20 with HEMn-MP cells [4] (Day 1) came out at 3.3 ± 0.4 µM; with HEMn-MP cells [4] (Day 7), 1.3 ± 0.0 µM; in the data set with A375 cells (Day 1 (24 hours)), 25.5 ± 0.8 µM; in the data set on A375 cells (Day 3) it was 17.2 ± 0.09 µM. For the same molecule, the Ratio of cytotoxicity in the data set with HEMn-MP cells [5] (0.39 μM) turned out to be 2%; with HEMn-MP cells [5] (0.78 μM), 14%; in the data set with HEMn-MP cells [5] (1.56 μM), 0%. In addition, half-maximal cytotoxicity in data set [6] (CC50 at 24 hours) was put at 33.8 ± 0.7 µM. The same molecule displayed a CC50 at 3 days in data set [6] of 19.99 ± 0.06 µM. Moreover, the “Change in cytotoxicity” value in the data set with A375 cells was “no more increase in cytotoxicity”.

As for `C[C@@H](O)CCc1ccc(O)cc1` [RD, rhododenol], in the data set with HEMn-MP cells [1], the CC20/EC50 is 0.8 Fold. Also, in the data set with HEMn-MP cells [1], the CC50/EC50 came to 2.1 Fold. In addition, the EC50 with HEMn-MP cells [1] was found to be 1130 ± 160 µM. In addition, the “Clinical side effect reported by users” value in data set [2] was “leukoderma-like side effects; also recorded: leukoderma-like symptoms”. Moreover, the CC20 with HEMn-MP cells [4] (Day 1) amounted to 7100 ± 800 µM; with HEMn-MP cells [4] (Day 7) it was 1000 ± 0 µM; in the data set with A375 cells (Day 1 (24 hours)) it was 4200 ± 200 µM; with A375 cells (Day 3), 190 ± 10 µM. Besides, the CC50 in the data set with HEMn-MP cells [4] (Day 1) stood at 10800 ± 700 µM; with HEMn-MP cells [4] (Day 7) it was 2400 ± 100 µM; in the data set with A375 cells (Day 1 (24 hours)) it was 8400 ± 200 µM; with A375 cells (Day 3) it was 500 ± 20 µM. Besides, the Ratio of cytotoxicity is reported as 24% with HEMn-MP cells [5] (1.25 mM), 27% with HEMn-MP cells [5] (2.5 mM) and 15% with HEMn-MP cells [5] (5 mM). In addition, in the data set with A375 cells, the “Change in cytotoxicity” value is listed as “continuously increased toxicity”.
